According to patent US20240376094A2, “SELECTIVE BCL-XL PROTAC COMPOUNDS AND METHODS OF USE” (Les Laboratoires Servier, priority 2021, published 2024):

Legend:
Format in all cases: cell-based
[1] = system: EBC-1 lung cancer cell line; test: EBC-1 cell proliferation, CellTiter-Glo assay; conditions: Homo sapiens, 120 h; Ebc-1 cell viability, CTG assay, 5 days of treatment; read-out: CTG 5 day Ebc1 GI50
How it was run: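 EBC-1 cells seeded at 1000 per well overnight, then exposed to 10-point dilutions (0.508 nM–10 μM final) for 5 days at 37 °C, in triplicate. ATP luminescence by CellTiter-Glo, normalised to untreated wells; GI50 from four-parameter logistic fit, runs valid only with at least one doubling.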

MOLT-4 cells = test: MOLT-4 cell viability, MTT assay; conditions: Homo sapiens, MOLT-4, 48 h
How it was run: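 MOLT-4 cells in RPMI 1640 with 10% FBS were exposed to compounds for 48 h at 9 concentrations (3.16-fold dilutions, triplicates). After 4 h with MTT and overnight SDS/HCl solubilisation, absorbance was read at 540 nm. IC50 came from four-parameter fits versus control, as the mean of ≥2 independent experiments.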

Bcl-xL = target: T1, Bcl-xL (Homo sapiens, UniProt Q07817); test: HCT116 Bcl-xL degradation, capillary-based immunoassay (WES); conditions: for remaining activity at 0.01 µM / remaining activity at 0.1 µM: HCT-116, 24 h, % of untreated cells; for remaining activity at 0.01 µM: HCT116, 10 nM; for remaining activity at 0.1 µM: HCT116, 100 nM; for DC50: HCT116, 24 h, 9-point serial dilution
T1 construct: Measured levels of Bcl-xL protein of HCT116 cells treated with the tested compounds; host or cells: HCT116
T1 sequence (Q07817 whole entry): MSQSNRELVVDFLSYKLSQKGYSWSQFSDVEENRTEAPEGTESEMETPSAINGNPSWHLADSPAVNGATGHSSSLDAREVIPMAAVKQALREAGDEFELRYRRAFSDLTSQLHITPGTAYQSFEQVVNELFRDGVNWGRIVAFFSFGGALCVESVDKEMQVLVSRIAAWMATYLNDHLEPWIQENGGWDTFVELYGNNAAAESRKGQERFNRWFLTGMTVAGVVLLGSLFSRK
How it was run: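 HCT116 cells treated 24 h with compound at 10/100 nM and/or 9-point dilution (quadruplicates), then lysed. Bcl-xL measured by capillary WES immunoassay, normalized to cofilin and expressed as % of untreated cells. DC50 from four-parameter curve fit.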

HiBiT-tagged BCL-xL = target: T2, HiBiT-tagged BCL-xL (Homo sapiens, UniProt Q07817); test: NCI-H1650 BCL-xL protein levels, Nano-Glo HiBiT Lytic Detection; conditions: NCI-H1650 expressing HiBiT-tagged BCL-xL, overnight incubation, read-out: Bcl-xl HIBIT NCIH1650 DC50
T2 construct: expressed in transfected cells; host or cells: NCI-H1650 (ATCC No. CRL-5883), engineered HiBiT cell line
T2 sequence (Q07817 whole entry): as above
How it was run: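 NCI-H1650 cells expressing HiBiT-tagged BCL-xL (5000/well) were treated overnight at 37° C with 10 concentrations, final 0.508 nM-10 μM, in triplicate. Remaining BCL-xL measured by Nano-Glo HiBiT lytic luminescence, normalized to untreated cells; 50% values by four-parameter logistic fit.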

SMILES | GI50 [1] | IC50 (MOLT-4 cells) | remaining activity at 0.01 µM (Bcl-xL) | remaining activity at 0.1 µM (Bcl-xL) | DC50 (HiBiT-tagged BCL-xL) | DC50 (Bcl-xL)
Cc1ncsc1-c1ccc(CNC(=O)[C@@H]2C[C@@H](O)CN2C(=O)[C@@H](NC(=O)CCCCC(=O)N2CCN(CC#Cc3ccc(OCCCc4sc(N5CCCc6c5nnc(Nc5nc7ccccc7s5)c6C)nc4C(=O)O)c(F)c3)CC2)C(C)(C)C)cc1 [Example 19, 2-[3-(1,3-benzothiazol-2-ylamino)-4-methyl-6,7-dihydro-5H-pyrido[2,3-c]pyridazin-8-yl]-5-[3-[2-fluoro-4-[3-[4-[6-[[(1S)-1-[(2S,4R)-4-hydroxy-2-[[4-(4-methylthiazol-5-yl)phenyl]methylcarbamoyl]pyrrolidine-1-carbonyl]-2,2-dimethyl-propyl]amino]-6-oxo-hexanoyl]piperazin-1-yl]prop-1-ynyl]phenoxy]propyl]thiazole-4-carboxylic acid] | 25 nM | 13.2 nM | 104% | 88% | > 1670 nM | 
Cc1c(Nc2nc3ccccc3s2)nnc2c1CCCN2c1ccc(-c2cnn(CC34CC5(C)CC(C)(C3)CC(OCCN(C)CCCCCCCCCCOc3ccc6c(c3)C(=O)N(C3CCC(=O)NC3=O)C6=O)(C5)C4)c2C)c(C(=O)O)n1 (stereo not shown) [Example 60, 6-[3-(1,3-benzothiazol-2-ylamino)-4-methyl-6,7-dihydro-5H-pyrido[2,3-c]pyridazin-8-yl]-3-[1-[[3-[2-[10-[2-(2,6-dioxo-3-piperidyl)-1,3-dioxo-isoindolin-5-yl]oxydecyl-methyl-amino]ethoxy]-5,7-dimethyl-1-adamantyl]methyl]-5-methyl-pyrazol-4-yl]pyridine-2-carboxylic acid] | 1 nM | 0.717 nM | 19% | 23% | > 1670 nM | 0.11 nM
Cc1ncsc1-c1ccc([C@H](C)NC(=O)[C@@H]2C[C@@H](O)CN2C(=O)[C@@H](NC(=O)CCCCCCCCCCN(C)CCOC23CC4(C)CC(C)(CC(Cn5ncc(-c6ccc(N7CCCc8c7nnc(Nc7nc9ccccc9s7)c8C)nc6C(=O)O)c5C)(C4)C2)C3)C(C)(C)C)cc1 [Example 135, 6-[3-(1,3-benzothiazol-2-ylamino)-4-methyl-6,7-dihydro-5H-pyrido[2,3-c]pyridazin-8-yl]-3-[1-[[3-[2-[[11-[[(1S)-1-[(2S,4R)-4-hydroxy-2-[[(1S)-1-[4-(4-methylthiazol-5-yl)phenyl]ethyl]carbamoyl]pyrrolidine-1-carbonyl]-2,2-dimethyl-propyl]amino]-11-oxo-undecyl]-methyl-amino]ethoxy]-5,7-dimethyl-1-adamantyl]methyl]-5-methyl-pyrazol-4-yl]pyridine-2-carboxylic acid] | 4 nM | 3.51 nM |  |  | 1 nM | 0.978 nM
Cc1ncsc1-c1ccc([C@H](C)NC(=O)[C@@H]2C[C@@H](O)CN2C(=O)[C@@H](NC(=O)CCCCCCCCCCCCN(C)CCOC23CC4(C)CC(C)(CC(Cn5ncc(-c6ccc(N7CCCc8c7nnc(Nc7nc9ccccc9s7)c8C)nc6C(=O)O)c5C)(C4)C2)C3)C(C)(C)C)cc1 [Example 136, 6-[3-(1,3-benzothiazol-2-ylamino)-4-methyl-6,7-dihydro-5H-pyrido[2,3-c]pyridazin-8-yl]-3-[1-[[3-[2-[[13-[[(1S)-1-[(2S,4R)-4-hydroxy-2-[[(1S)-1-[4-(4-methylthiazol-5-yl)phenyl]ethyl]carbamoyl]pyrrolidine-1-carbonyl]-2,2-dimethyl-propyl]amino]-13-oxo-tridecyl]-methyl-amino]ethoxy]-5,7-dimethyl-1-adamantyl]methyl]-5-methyl-pyrazol-4-yl]pyridine-2-carboxylic acid] | 1 nM | 1.45 nM |  |  | 1 nM | 2.71 nM
